Target: T1, LDH from rabbit muscle (LDH-A) (Oryctolagus cuniculus, UniProt P13491)
T1 construct: gene LDHA; native commercial enzyme from rabbit muscle (Sigma-Aldrich), homotetramer
Assay: spectrophotometric NADH absorbance decrease at […] nm, initial rate
Assay type: biochemical

## O=S(=O)(O)CCSc1nc2ccccc2s1 [compound 4, 2-(benzothiazol-2-ylsulfanyl)-ethanesulfonate]
  IC50: 1.2 mM
